From ChEMBL document CHEMBL4619724, “Environment-sensitive fluorescent inhibitors of histone deacetylase” (Bioorg Med Chem Lett, 2020) come the findings set out here.

The test system of series [1] is MOLT-4. Put plainly: Antiproliferative activity against human MOLT4 cells incubated for 24 hrs by CCK8 assay. Format: functional, cell-based. Particulars: MOLT-4, 24 h; call rule not given here.
Series [2] has as its system PC-3. Kind of series: Antiproliferative activity against human PC3 cells incubated for 24 hrs by CCK8 assay. As to conditions: PC-3, 24 h. Format: functional, cell-based. (Formazan colour is commonly taken as a measure of viable cells.)
The test system of series [3] is A549. Put plainly: Antiproliferative activity against human A549 cells incubated for 24 hrs by CCK8 assay. Particulars: A549, 24 h. Format: functional, cell-based.
Series [4] concerns MOLT-4. Put plainly: Induction of apoptosis in human MOLT4 cells assessed as increase in apoptotic cells at 5 uM incubated for 24 hrs by Annexin V and PE staining based flow cytometric analysis relative to control. Format: functional. A general note: A flow cytometer gives signals particle by particle.
Series [5] deals with K562. Put plainly: Antiproliferative activity against human K562 cells incubated for 24 hrs by CCK8 assay. Format: functional, cell-based. Particulars: K562, 24 h.
A short description of series [6]: Drug uptake in tumor tissue of nude mouse xenografted with human PC3 cells assessed as increase in fluorescence intensity at 10 uM by fluorescence upright microscopic method. The class given is ADME, tissue-based, Neoplasm, PC-3. Particulars: in vivo. On the technique in general: Xenograft models place foreign cells or tissue in a host animal.
Series [7] in a line: Drug uptake in nude mouse skin assessed as increase in fluorescence intensity in tissue at 10 uM by fluorescence upright microscopic method. As to conditions: in vivo. The class given is ADME, tissue-based, Zone of skin.
Series [8] in a line: Drug uptake in cytoplasm in human MOLT4 cells overexpressing HDAC at 5 uM incubated for 30 mins by fluorescence microscopic method. Format: ADME, subcellular. Particulars: molt-4, 0.5 h.
Series [9] is described as follows: Drug uptake in nucleus in human MOLT4 cells at 5 uM incubated for 30 mins by Hoechst 33342 staining based confocal microscopic method. As to conditions: molt-4, 0.5 h. Format: ADME, subcellular.
Series [10] can be described thus: Drug uptake in cytoplasm in HEK293 cells harboring low HDAC expression at 5 uM incubated for 30 mins by fluorescence microscopic method. The class given is ADME, subcellular. Particulars: human, hek293, 0.5 h.
A short description of series [11]: Drug uptake in nude mouse thigh muscles assessed as increase in fluorescence intensity in tissue at 10 uM by fluorescence upright microscopic method. The class given is ADME, tissue-based, Thigh muscle. Particulars: in vivo.
Series [12] is described as follows: Drug uptake in tumor tissue of nude mouse xenografted with human PC3 cells assessed as increase in fluorescence intensity in tumor tissue at 10 uM in presence of HDAC inhibitor, SAHA by fluorescence upright microscopic method. The class given is ADME, tissue-based, Neoplasm, PC-3. Particulars: in vivo.
Series [13] is described as follows: Drug uptake in cytoplasm in human PC3 cells overexpressing HDAC at 5 uM incubated for 30 mins by fluorescence microscopic method. The class given is ADME, subcellular. As to conditions: pc-3, 0.5 h.
Series [14] is described as follows: Drug uptake in human MOLT4 cell membrane at 5 uM incubated for 30 mins by DID staining based confocal microscopic method. Format: ADME. Particulars: molt-4, 0.5 h.
For series [15], the target named is Histone deacetylase. Put plainly: Inhibition of HDAC in human HeLa cell extracts assessed as inhibition of substrate deacetylation using Boc-Lys (acetyl)-AMC as substrate by fluorescence based assay.

As usually defined, the IC50 is the point on the concentration scale where inhibition reaches its midpoint.

SMILES strings stand for the structures. Bounds are passed on as bounds.

Consider `CN(C)S(=O)(=O)c1ccc(NCCCCCC(=O)NO)c2nonc12`, for which the IC50 in [1] was 3.55 µM; in series [2] it was 31.2 µM; in [3], more than 100 µM; in [5], 15.2 µM. The Activity in series [4] worked out at 23.3%.

In the case of `O=C(CCCCCCC(=O)Nc1ccccc1)NO` [VORINOSTAT], in series [4], the Activity came out at 29.58%.

For the compound `CN(C)S(=O)(=O)c1ccc(NCCCCCCC(=O)NO)c2nonc12`, the Drug uptake result in [6] was “Active”; in [7], “Not Active”; in series [8], “Active”; in [9] it was “Not Active”; in [10] it was “Not Active”; in series [11] it was “Not Active”. Moreover, the Drug uptake result in series [12] was “Not Active”; in [13], “Active”; in [14] it was 62.1%. In addition, the IC50 in series [1] is 7.84 µM; in series [2], 52.6 µM; in [3], more than 100 µM; in series [5], 11 µM. In addition, in series [4], the Activity amounted to 20.02%.

As to `CC(C)CC(NC(=O)NCCCCCNc1ccc(S(=O)(=O)N(C)C)c2nonc12)C(=O)NO` (configuration not stated), the concentration for half-maximal inhibition (IC50) in series [15] was more than 100 µM.

For the compound `CN(C)S(=O)(=O)c1ccc(NCCCCCNC(=O)NCC(=O)NO)c2nonc12`, the half-maximal inhibitory concentration (IC50) in [15] is 7.58 µM.
